According to the supplement of paper PMC11061612:

Key:
Assay in all cases: combination Emax (second highest fraction inhibited in the dose matrix, 72 h); higher = more inhibition; extreme values may be limits of the assay
H4 (Low Grade Glioma) = tested on: H4 (Low Grade Glioma)
In short: (§1)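 After 24 hours at 37°C and 5% CO2 in 1536-well plates, cells in DMEM/F12 or RPMI plus 10% FBS received two-drug dose matrices for 72 hours. Viability came from CellTiter-Glo 2.0 luminescence and was scaled as inhibition, anchored at 0 by vehicle wells and at 1 by blank wells. Combination Emax is taken as the second-highest inhibition in the matrix, and Bliss excess as the observed combination effect less EA + EB − EA·EB, with EA and EB the single-agent effects.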

[1] = tested on: SNG-M (Endometrial Carcinoma)
In short: as §1

A172 (Glioblastoma) = tested on: A172 (Glioblastoma)
In short: as §1

[2] = tested on: SW48 (Colorectal Carcinoma)
In short: as §1

[3] = tested on: BICR78 (Oral Cavity Carcinoma)
In short: as §1

[4] = tested on: 647-V (Bladder Carcinoma)
In short: as §1

[5] = tested on: EFM-192A (Breast Carcinoma)
In short: as §1

[6] = tested on: NOMO-1 (Acute Myeloid Leukemia)
In short: as §1

[7] = tested on: U-118-MG (Low Grade Glioma)
In short: as §1

CS1 (Chondrosarcoma) = tested on: CS1 (Chondrosarcoma)
In short: as §1

[8] = tested on: TYK-nu (Ovarian Carcinoma)
In short: as §1

MCF7 (Breast Carcinoma) = tested on: MCF7 (Breast Carcinoma)
In short: as §1

[9] = tested on: PA-TU-8902 (Pancreatic Carcinoma)
In short: as §1

[10] = tested on: GDM-1 (Acute Myeloid Leukemia)
In short: as §1

[11] = tested on: NCI-H1688 (Small Cell Lung Carcinoma)
In short: as §1

[12] = tested on: WSU-DLCL2 (B-Cell Non-Hodgkin's Lymphoma)
In short: as §1

HuO9 (Osteosarcoma) = tested on: HuO9 (Osteosarcoma)
In short: as §1

[13] = tested on: JHH-6 (Hepatocellular Carcinoma)
In short: as §1

[14] = tested on: SK-LMS-1 (Other Solid Carcinomas)
In short: as §1

EW-22 (Ewing's Sarcoma) = tested on: EW-22 (Ewing's Sarcoma)
In short: as §1

Structure (SMILES)	combination Emax (H4 (Low Grade Glioma))	combination Emax [1]	combination Emax (A172 (Glioblastoma))	combination Emax [2]	combination Emax [3]	combination Emax [4]	combination Emax [5]	combination Emax [6]	combination Emax [7]	combination Emax (CS1 (Chondrosarcoma))	combination Emax [8]	combination Emax (MCF7 (Breast Carcinoma))	combination Emax [9]	combination Emax [10]	combination Emax [11]	combination Emax [12]	combination Emax (HuO9 (Osteosarcoma))	combination Emax [13]	combination Emax [14]	combination Emax (EW-22 (Ewing's Sarcoma))
Cn1cnc2c(F)c(Nc3ccc(Br)cc3Cl)c(C(=O)NOCCO)cc21 [Selumetinib] + CCN(CCO)CCCOc1ccc2c(Nc3cc(CC(=O)Nc4cccc(F)c4)[nH]n3)ncnc2c1 [AZD2811] (first compound max 10 µM, 7x7, partner max 1 µM)	0.306	0.261	0.416	0.989	0.322	0.394	0.167	0.988	0.287	0.266	0.554	0.191	0.445	0.861	0.169	0.127	0.242	0.318	0.334	0.695
CN(CCO)CC[C@H](CSc1ccccc1)Nc1ccc(S(=O)(=O)NC(=O)c2ccc(N3CCC([C@@H](O)c4ccccc4-c4ccc(Cl)cc4)CC3)cc2)cc1S(=O)(=O)C(F)(F)F [AZD4320] + CN(C)CCCOc1ccc(-c2ccc3ncc4c(c3c2)n(C2CCOCC2)c(=O)n4C)cn1 [AZD0156] (first compound max 1 µM, 7x7, partner max 1 µM)	0.247	0.328	0.176	0.517	0.134	0.172	0.234	0.377	0.388	0.427	0.165	0.234	0.0883	1	0.487	0.581	0.79	0.129	0.371	0.897
CCc1c2c(nc3ccc(O)cc13)-c1cc3c(c(=O)n1C2)COC(=O)[C@]3(O)CC [SN-38] + CN(C)CCCOc1ccc(-c2ccc3ncc4c(c3c2)n(C2CCOCC2)c(=O)n4C)cn1 [AZD0156] (first compound max 0.3 µM, 7x7, partner max 1 µM)	0.931	0.433	0.81	0.826	0.786	0.985	0.174	0.98	0.893	0.821	0.847	0.686	0.413	0.937	0.322	0.944	0.989	0.326	0.914	0.951
COc1cccc(OCCCN)c1-c1cc(Nc2cnc(C#N)cn2)n[nH]1 [Prexasertib] + CCc1c2c(nc3ccc(O)cc13)-c1cc3c(c(=O)n1C2)COC(=O)[C@]3(O)CC [SN-38] (first compound max 1 µM, 7x7, partner max 0.3 µM)	0.941	0.899	0.751	0.889	0.845	1	0.318	1	0.986	0.882	0.861	0.685	0.752	0.99	0.941	1	0.995	0.79	0.891	0.94
COc1nnc2ccc(N3CCC(c4ccc(OCCN5CCN(C)C(=O)[C@H]5C)cc4)CC3)nn12 [AZD5153] + CC1(C)CCC(CN2CCN(c3ccc(C(=O)NS(=O)(=O)c4ccc(NCC5CCOCC5)c([N+](=O)[O-])c4)c(Oc4cnc5[nH]ccc5c4)c3)CC2)=C(c2ccc(Cl)cc2)C1 [Venetoclax] (first compound max 1 µM, 7x7, partner max 1 µM)	0.677	0.548	0.479	0.631	0.468	0.463	0.326	1	0.367	0.408	0.571	0.669	0.275	1	0.384	1	0.796	0.463	0.507	0.6
CC1(C)CCC(CN2CCN(c3ccc(C(=O)NS(=O)(=O)c4ccc(NCC5CCOCC5)c([N+](=O)[O-])c4)c(Oc4cnc5[nH]ccc5c4)c3)CC2)=C(c2ccc(Cl)cc2)C1 [Venetoclax] + Cn1cnc2c(F)c(Nc3ccc(Br)cc3Cl)c(C(=O)NOCCO)cc21 [Selumetinib] (first compound max 1 µM, 7x7, partner max 3 µM)	0.232	0.2	0.206	0.52	0.323	0.133	0.11	0.994	0.181	0.278	0.464	0.104	0.26	0.735	0.121	0.375	0.177	0.222	0.203	0.855
CN(C)CCCOc1ccc(-c2ccc3ncc4c(c3c2)n(C2CCOCC2)c(=O)n4C)cn1 [AZD0156] + C[C@@H]1COCCN1C2=NC(=NC(=C2)C3(CC3)[S@](=N)(=O)C)C4=C5C=CNC5=NC=C4 [AZD6738] (first compound max 1 µM, 7x7, partner max 10 µM)	0.826	0.964	0.717	0.779	0.696	0.491	0.245	0.94	0.528	0.674	0.713	0.837	0.41	0.52	0.382	0.977	0.838	0.337	0.525	0.905
COc1cccc(OCCCN)c1-c1cc(Nc2cnc(C#N)cn2)n[nH]1 [Prexasertib] + Cc1cc2ncnn2cc1Nc1ncc2c(n1)n(C1CCOCC1)c(=O)n2C [AZD7648] (first compound max 1 µM, 7x7, partner max 10 µM)	0.874	0.954	0.728	0.728	0.572	0.757	0.284	1	0.686	0.727	0.739	0.682	0.598	0.924	0.557	1	0.778	0.389	0.637	0.89
COc1cc2c(cc1OCCCCCOc1cc3c(cc1OC)C(=O)N1C=C(C)C[C@H]1C=N3)N=C[C@@H]1CC(C)=CN1C2=O [SG3199] + O=C(c1cc(Cc2n[nH]c(=O)c3ccccc23)ccc1F)N1CCN(C(=O)C2CC2)CC1 [Olaparib] (first compound max 0.001 µM, 7x7, partner max 10 µM)	0.505	0.159	0.363	0.0699	0.131	0.276	0.129	0.145	0.305	0.178	0.369	0.106	0.0749	0.32	0.107	0.127	0.2	0.113	0.2	0.894
Cc1cc2ncnn2cc1Nc1ncc2c(n1)n(C1CCOCC1)c(=O)n2C [AZD7648] + CN(C)CCCOc1ccc(-c2ccc3ncc4c(c3c2)n(C2CCOCC2)c(=O)n4C)cn1 [AZD0156] (first compound max 10 µM, 7x7, partner max 1 µM)	0.448	0.205	0.319	0.329	0.208	0.222	0.374	0.461	0.277	0.306	0.431	0.373	0.227	0.657	0.147	0.345	0.369	0.279	0.428	0.467
COc1nnc2ccc(N3CCC(c4ccc(OCCN5CCN(C)C(=O)[C@H]5C)cc4)CC3)nn12 [AZD5153] + Cc1c2c(nn1C)CSCc1cc(n(C)n1)CSc1cc(c3ccccc3c1)OCCCc1c(C(=O)O)n(C)c3c-2c(Cl)ccc13 [AZD5991] (first compound max 1 µM, 7x7, partner max 1 µM)	0.888	0.639	0.485	0.711	0.501	0.587	0.665	1	0.352	0.38	0.646	0.769	0.345	1	0.647	1	0.996	0.436	0.5	0.888
C[C@@H]1COCCN1c1cc(C2([S@](C)(=N)=O)CC2)nc(-c2ccnc3[nH]ccc23)n1 [AZD6738] + O=C(c1cc(Cc2n[nH]c(=O)c3ccccc23)ccc1F)N1CCN(C(=O)C2CC2)CC1 [Olaparib] (first compound max 10 µM, 7x7, partner max 10 µM)	0.791	0.898	0.717	0.72	0.615	0.61	0.32	0.908	0.589	0.67	0.665	0.573	0.195	0.624	0.203	0.92	0.857	0.263	0.529	0.942
